Measured values taken from patent US9611246B2, “Compositions, apparatus, systems, and methods for resolving electronic excited states” (HALLSTAR INNOVATIONS CORP., priority 2012, dated 2017).

Experiments:
[1] = reference value; cited from earlier work
[2] = Photostabilization of Avobenzone and OMC, solution on quartz (Experiment 6-2); format: physicochemical; conditions: Avobenzone 3%, OMC 7.5%
Text: Experiment 6-2 compares the compounds at 3% to photostabilize Avobenzone at 3% and OMC at 7.5%. The results are shown in Table 2 and graphically in FIG. 20.

[3] = Protoporphyrin IX fluorescence lifetime quenching (singlet excited state); format: physicochemical; conditions: PPIX; for bimolecular quenching rate constant for singlet excited state quenching (in words): acetonitrile; for Singlet Quenching Rate Constant: acetonitrile solutions at room temperature
Procedure: Fluorescence lifetime measurements are a convenient way to measure singlet state quenching by stabilizers. Protoporphyrin IX decay traces were recorded in the absence and presence of compound I(a)(1) and alkoxy […] (FIG. 3). […] The collected data shown in FIG. 3 were used to determine the bimolecular quenching rate constant for singlet excited state quenching by the compounds. The quenching rate constant may be directly extracted from the slope of the plot of the inverse fluorescence lifetime vs. the concentration of the two compounds (FIG. 4). […] The biomolecular quenching rate constants for singlet excited state (kq^S) and triplet excited state (kq^T) quenching of PPIX by stabilizers in acetonitrile solutions at room temperature is shown in Table 4, as well and the Stern-Volmer rate constants.

[4] = Protoporphyrin IX triplet state quenching by laser flash photolysis; format: physicochemical; conditions: PPIX, acetonitrile solutions at room temperature
Procedure: To investigate if triplet states of protoporphyrin IX are quenched by the two compounds, laser flash photolysis experiments were performed. In these experiments, a deoxygenated acetonitrile solution of protoporphyrin IX is excited with short laser pulses from a Nd-YAG laser (355 nm, 5 ns pulse width). Difference absorption kinetic traces were recorded at different observation wavelengths (300 to 800 nm) and from these a transient absorption spectrum was constructed (FIG. 5A). […] In addition, two bands are observed at 320 and 440 nm, which are assigned to the triplet-triplet absorption of protoporphyrin IX. […] Triplet absorption kinetics at 440 nm may be utilized to obtain triplet quenching rate constants by the stabilizers. Triplet decay traces at 440 nm were recorded in the presence of different amounts of the alkoxy […], Formulas […])(1), and the mixture of II(b)(1) and II(c)(1). The decay traces were fitted to a first-order kinetics. The plot of these pseudo-first-order rate constants (inverse decay lifetime) vs. the concentration of the two compounds gives directly the bimolecular triplet quenching rate constant from the slope (FIG. 6). The biomolecular quenching rate constants for singlet excited state (kq^S) and triplet excited state (kq^T) quenching of PPIX by stabilizers in acetonitrile solutions at room temperature is shown in Table 4, as well and the Stern-Volmer rate constants.

[5] = system: visible light-induced free radicals in pig skin; assay: Visible light-induced free radicals in ALA-treated pig skin by Electron Spin Resonance; conditions: 1% reference
Procedure: A conjugated fused tricycle compound according to Formula II(a)(1) reduced visible light-induced free radicals in skin by up to 89% and did so in a dose-dependent manner (FIG. 21). The study was conducted using pig skin, which is recognized for its similarity to human skin. Topical application of aminolevulinic acid (ALA) induced the skin to over-produce the endogenous photosensitizer Protoporphyrin IX (PPIX). Solutions of Formula II(a)(1) at different concentrations were then topically applied to the ALA treated skin after which it was exposed to bright green light. The resulting free radical content of the skin was then measured by Electron Spin Resonance (ESR). Studies conducted in solution have shown that Formula II(a)(1) suppresses singlet oxygen production by PPIX. […] The mechanisms of action of Formula II(a)(1) and Tocopherol are different: the former prevents free radicals from forming; the latter scavenges free radicals after they appear.

[6] = UV and visible light absorption spectra of stabilizers; format: physicochemical; conditions: acetonitrile
Procedure: UV and visible light absorption spectra were recorded to investigate to what extent each stabilizer itself absorbs UV light. […] Protoporphyrin IX has weak absorption bands above 450 nm, where the two compounds are transparent (FIG. 2). The compound with the oxygen bridge (Formula II(d)(1)) caused a bathocromic shift of the UV absorption of the lowest energy band. The compound with the sulfur bridge (Formula II(e)(1)) shifted the lowest energy band further into the visible region.

[7] = Voltammetry, redox potential with respect to Ag/AgCl reference electrode; format: physicochemical; conditions: vs Ag/AgCl
Text: For these experiments, dimethylsulfoxide (DMSO) and tetrabutylammonium perchlorate (TBAP) were obtained from Sigma Aldrich and used as received. […] Platinum wires (BASi MW-1032) of diameter 0.5 mm were employed for both the working electrode (WE) and counter electrode (CE). A dry-solvent tolerant Ag/AgCl reference electrode (RE) was obtained from eDAQ (Model ET072). The WE and CE were cleaned prior to each by first rinsing in acetone, then DI, followed by soaking in ˜50% aqueous H2SO4 for 10-20 minutes and then a final DI rinse. The RE electrode was cleaned prior to each use by an acetone rinse followed by DI rinse. Each sample solution was prepared in a fresh glass vial which had been rinsed with DI then acetone and allowed to dry Immediately after preparing each solution, it was purged with pure N2 gas for 15-20 minutes with the electrodes in place. Voltammetry data was collected shortly afterwards with an EG&G PAR 263 A Potentiostant/Galvanostat operated using a Labview-based control program. Scans were performed at various potential ranges between +2.0V and −2.0V (vs Ag/AgCl); all scan rates were constant at 200 mV/s.

[8] = Stern-Volmer analysis of singlet oxygen suppression; format: physicochemical
Text: The singlet oxygen phosphorescence intensity in the absence of the compound of Formulas I(a)(1), II(a)(1), II(d)(1), II(e)(1), or a mixture of II(b)(1) and II(c)(1) (I0) divided by the singlet oxygen phosphorescence intensity in the presence of compounds of Formula I/II(I) was plotted against the Formula I/II concentration (FIG. 16). From the slope of these plots (Stern-Volmer constant) and the lifetime of the quenched excited state, the bimolecular quenching constant can be extracted. If the excited state, which is quenched by the compound of Formula I(a)(1) (which causes a reduction in singlet oxygen production) is the singlet excited state of protoporphyrin IX then, using the previously measured fluorescence lifetime in acetonitrile (if =12.7 ns) a quenching rate constant of 2.4×10^9 M^−1 s^−1 is estimated. […] The rate constant derived from singlet oxygen phosphorescence quenching (FIG. 16) is only half of the more directly derived rate constant from fluorescence quenching, which could be caused by the difference in solvents or by some contribution of protoporphyrin triplet quenching by the compound of Formula I(a)(1). […] This rate constant is 5 times higher than the directly measured rate constant by laser flash photolysis (6.1×10^6 M^−1 s^−1). […] It must be noted that protoporphyrin IX triplet lifetime of ˜1 μs in air saturated DMSO was only estimated based on the directly measured triplet lifetime in air saturated acetonitrile and considering the different oxygen concentration in DMSO compared to acetonitrile. If necessary, the protoporphyrin IX triplet lifetime in air saturated DMSO can easily be measured by laser flash photolysis. The complex reaction mechanism is summarized in Scheme 1 (FIG. 17).
The biomolecular quenching rate constants for singlet excited state (kq^S) and triplet excited state (kq^T) quenching of PPIX by stabilizers in acetonitrile solutions at room temperature is shown in Table 4, as well and the Stern-Volmer rate constants.
Stern-Volmer constants are in direct correlation with the singlet oxygen suppression efficiency. Table 4 (above) summarizes the Stern-Volmer constants and PPIX singlet and triplet state quenching rate constants. Three different ranges of Stern-Volmer constants were observed. […] For compounds I(a)(1), II(d)(1), and the mixture of II(b)(1) and II(c)(1), Stern-Volmer constants of about 30 M^−1 were observed. For these three stabilizers, high PPIX singlet quenching rate constants (about 5×10^9 M^−1 s^−1) but low triplet quenching rate constants (<10^9 M^−1 s^−1) were observed. Here, the singlet oxygen suppression is probably dominated by PPIX singlet excited state quenching by these stabilizers. […] Because of the very high PPIX triplet quenching rate constant by compound II(a)(1) (3.2×10^9 M^−1 s^−1), the singlet oxygen suppression is probably dominated by triplet quenching. […] These kinetic parameters may include the MePPIX triplet and singlet lifetimes in air saturated and oxygen free CDCl3 and the bimolecular quenching constant by oxygen.

[9] = 0.01 M in 0.1 M TBAP in DMSO, 200 mV/s

Row | Compound | % UVA ([2]; stabilizer level 1.0) [%] | % UVB ([2]; stabilizer level 1.0) [%] | % UVA ([2]; stabilizer level 2.0) [%] | % UVB ([2]; stabilizer level 2.0) [%] | % UVA ([2]; stabilizer level 4.0) [%] | % UVB ([2]; stabilizer level 4.0) [%] | further results
1 | O=C(c1ccccc1)c1ccccc1 [benzophenone] | – | – | – | – | – | – | quantum yield of singlet oxygen generation (reference) [1]: 0.35
2 | Ethylhexyl dimethyl 2,2′-anthracene-9,10-diylidenebis(cyanoacetate) [Formula Y-1-22] | 82.1 | 87.8 | 87.8 | 92.1 | 91.0 | 94.7 | –
3 | COC(=O)C(C#N)=C1c2ccccc2Oc2ccccc21 [Formula II(d)(1)] | – | – | – | – | – | – | bimolecular quenching rate constant for singlet excited state quenching (in words) [3]: high quenching rate constant; Singlet Quenching Rate Constant [3]: 3.7 10^9 M^−1s^−1; Triplet Quenching Rate Constant [4]: 0.14 10^9 M^−1s^−1
4 | CCCCC(CC)COC(=O)C(C#N)=C1c2ccccc2Oc2ccccc21 (centres unmarked) [Formula Y-1-9, Ethylhexyl cyano xanthenylidene acetate] | 88.6 | 91.8 | 88.6 | 91.1 | 94.5 | 95.3 | –
5 | Cc1c(C)c2c(c(C)c1O)CCC(C)(CCCC(C)CCCC(C)CCCC(C)C)O2 (centres unmarked) [Tocopherol, reference compound] | – | – | – | – | – | – | Free Radicals (a.u.) ([5]; ALA-treated pig skin): 1955 ± 366 a.u.; Free Radicals (%) ([5]; relative to 0 mM control): 78%
6 | COC(=O)C(C#N)=c1c2ccccc2c(=C(C#N)C(=O)OC)c2ccccc12 [Formula II(b)(1)] | – | – | – | – | – | – | first (or only) redox couple, oxidation peak [7, 9]: +54 mV; first (or only) redox couple, reduction peak [7, 9]: −545 mV; first (or only) redox couple, redox potential ([7]; estimated from the peaks): −245 mV
7 | COC(=O)C(C#N)=C1c2ccccc2Sc2ccccc21 [Formula II(e)(1)] | – | – | – | – | – | – | bimolecular quenching rate constant for singlet excited state quenching (in words) [3]: high quenching rate constant; Singlet Quenching Rate Constant [3]: 0.65 10^9 M^−1s^−1; second redox couple, oxidation peak (large) [7]: +434 mV; first (or only) redox couple, oxidation peak [7, 9]: −782 mV; first (or only) redox couple, reduction peak [7, 9]: −969 mV; second redox couple, reduction peak [7, 9]: −1409 mV; first (or only) redox couple, redox potential ([7]; estimated from the peaks): −875 mV; second redox couple, redox potential ([7]; estimated from the peaks): −1347 mV; second redox couple, oxidation peak ([7]; the small peak where two are given): −1286 mV; Triplet Quenching Rate Constant [4]: 0.0012 10^9 M^−1s^−1; Stern-Volmer Constant of ^1O2 Suppression [8]: 1.2 M⁻¹; singlet oxygen suppression (in words) [8]: only negligible singlet oxygen suppression

Now from value to compound, other results behind:

Row | % UVA ([2]; stabilizer level 1.0) [%] | % UVB ([2]; stabilizer level 1.0) [%] | % UVA ([2]; stabilizer level 2.0) [%] | % UVB ([2]; stabilizer level 2.0) [%] | % UVA ([2]; stabilizer level 4.0) [%] | % UVB ([2]; stabilizer level 4.0) [%] | Compound | further results
8 | 85.5 | 90.0 | 91.0 | 93.8 | 90.8 | 93.9 | CCCCC(CC)COC(=O)C(C#N)=C1c2ccccc2Sc2ccccc21 (centres unmarked) [Formula Y-1-15, Ethylhexyl cyano thioxanthenylidene acetate] | –
9 | 81.3 | 87.8 | 84.2 | 90.1 | 87.3 | 91.5 | CCCCC(CC)COC(=O)C(C#N)=C(c1ccccc1)c1ccc(OC)cc1 (centres unmarked) [SolaStay S1, ethylhexyl methoxycrylene, reference compound] | λmax [6]: 336 nm; extinction coefficient (molar absorptivity) ([6]; at λmax): 13,200 M −1 cm −1
